Results published in patent publication US20100267561A1, “HERBICIDAL PYRIDAZINONE DERIVATIVES” (priority 2007, published 2010).

How the values were obtained:
Assay in all cases: Test B pre-/postemergence plant response
Assay type in all cases: in vivo
soybean (Glycine max) = test system: soybean (Glycine max)
Outline: (§1)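 Seeds were sown and sprayed preemergence, while plants at 2 to 18 cm (1- to 4-leaf stage) got postemergence sprays. Compounds were formulated in a non-phytotoxic solvent mixture with surfactant. After 13 to 15 days in a greenhouse, injury was rated visually against untreated controls, 0 (no effect) to 100 (complete control).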

[1] = test system: lambsquarters (Chenopodium album)
Outline: as §1

[2] = test system: goosegrass (Eleusine indica)
Outline: as §1

[3] = test system: woolly cupgrass (Eriochloa villosa)
Outline: as §1

[4] = test system: velvetleaf (Abutilon theophrasti)
Outline: as §1

[5] = test system: green foxtail (Setaria viridis)
Outline: as §1

kochia (Kochia scoparia) = test system: kochia (Kochia scoparia)
Outline: as §1

corn (Zea mays) = test system: corn (Zea mays)
Outline: as §1

[6] = test system: wheat (Triticum aestivum)
Outline: as §1

[7] = test system: yellow nutsedge (Cyperus esculentus)
Outline: as §1

[8] = test system: bermudagrass (Cynodon dactylon); conditions: for Bermudagrass plant response rating: preemergence, 0-100 scale
Outline: as §1

[9] = test system: cocklebur (Xanthium strumarium)
Outline: as §1

[10] = test system: giant foxtail (Setaria faberii)
Outline: as §1

[11] = Preemergence, 31 g ai/ha, 0 to 100 scale, 0 no effect, 100 complete control
[12] = Preemergence, 62 g ai/ha, scale 0 to 100
[13] = Preemergence, 125 g ai/ha, scale 0 to 100
[14] = Preemergence, 250 g ai/ha, scale 0 to 100
[15] = Postemergence, 31 g ai/ha, scale 0 to 100, 0 no effect, 100 complete control
[16] = Postemergence, 62 g ai/ha, scale 0 to 100
[17] = Postemergence, 125 g ai/ha, scale 0 to 100
[18] = Postemergence, 250 g ai/ha, scale 0 to 100

Cc1cc(-c2ccc(C(F)(F)F)cc2)nn1-c1c(OC(=O)C(C)(C)C)cnn(C)c1=O [Compound 2]
Plant response rating, Soybean (soybean (Glycine max); [11]): 0 | Plant response rating, Soybean (soybean (Glycine max); [12]): 0 | Plant response rating, Soybean (soybean (Glycine max); [13]): 0 | Plant response rating, Soybean (soybean (Glycine max); [14]): 0 | Plant response rating, Lambsquarters [1, 11]: 0 | Plant response rating, Lambsquarters [1, 12]: 0 | Plant response rating, Lambsquarters [1, 13]: 0 | Plant response rating, Lambsquarters [1, 14]: 30 | Plant response rating, Goosegrass [2, 11]: 50 | Plant response rating, Goosegrass [2, 12]: 60 | Plant response rating, Goosegrass [2, 13]: 95 | Plant response rating, Goosegrass [2, 14]: 95 | Plant response rating, Cupgrass, Woolly [3, 11]: 70 | Plant response rating, Cupgrass, Woolly [3, 12]: 80 | Plant response rating, Cupgrass, Woolly [3, 13]: 80 | Plant response rating, Cupgrass, Woolly [3, 14]: 100 | Plant response rating, Velvetleaf [4, 11]: 0 | Plant response rating, Velvetleaf [4, 12]: 0 | Plant response rating, Velvetleaf [4, 13]: 0 | Plant response rating, Velvetleaf [4, 14]: 10 | Plant response rating, Foxtail, Green [5, 11]: 90 | Plant response rating, Foxtail, Green [5, 12]: 95 | Plant response rating, Foxtail, Green [5, 13]: 100 | Plant response rating, Foxtail, Green [5, 14]: 100 | Plant response rating, Kochia (kochia (Kochia scoparia); [11]): 0 | Plant response rating, Kochia (kochia (Kochia scoparia); [12]): 0 | Plant response rating, Kochia (kochia (Kochia scoparia); [13]): 0 | Plant response rating, Kochia (kochia (Kochia scoparia); [14]): 50 | Plant response rating, Corn (corn (Zea mays); [11]): 50 | Plant response rating, Corn (corn (Zea mays); [12]): 90 | Plant response rating, Corn (corn (Zea mays); [13]): 95 | Plant response rating, Corn (corn (Zea mays); [14]): 95 | Plant response rating, Wheat [6, 11]: 30 | Plant response rating, Wheat [6, 12]: 50 | Plant response rating, Wheat [6, 13]: 60 | Plant response rating, Wheat [6, 14]: 75 | Plant response rating, Nutsedge, Yellow [7, 11]: 0 | Plant response rating, Nutsedge, Yellow [7, 12]: 0 | Plant response rating, Nutsedge, Yellow [7, 13]: 0 | Plant response rating, Nutsedge, Yellow [7, 14]: 0 | Bermudagrass plant response rating ([8]; 250 g ai/ha): 100 | Plant response rating, Bermudagrass [8, 11]: 100 | Plant response rating, Bermudagrass [8, 12]: 100 | Plant response rating, Bermudagrass [8, 13]: 100 | Plant response rating, Cocklebur [9, 11]: 0 | Plant response rating, Cocklebur [9, 12]: 0 | Plant response rating, Cocklebur [9, 13]: 0 | Plant response rating, Cocklebur [9, 14]: 0 | Plant response rating, Foxtail, Giant [10, 11]: 100 | Plant response rating, Foxtail, Giant [10, 12]: 100 | Plant response rating, Foxtail, Giant [10, 13]: 100 | Plant response rating, Foxtail, Giant [10, 14]: 100

Cc1cc(-c2ccc(Br)cc2)nn1-c1c(O)cnn(C)c1=O [Compound 4]
Plant response rating, Soybean (soybean (Glycine max); [15]): 20 | Plant response rating, Soybean (soybean (Glycine max); [16]): 30 | Plant response rating, Soybean (soybean (Glycine max); [17]): 90 | Plant response rating, Soybean (soybean (Glycine max); [18]): 90 | Plant response rating, Soybean (soybean (Glycine max); [11]): 0 | Plant response rating, Soybean (soybean (Glycine max); [12]): 0 | Plant response rating, Soybean (soybean (Glycine max); [13]): 0 | Plant response rating, Soybean (soybean (Glycine max); [14]): 20 | Plant response rating, Lambsquarters [1, 15]: 0 | Plant response rating, Lambsquarters [1, 16]: 0 | Plant response rating, Lambsquarters [1, 17]: 60 | Plant response rating, Lambsquarters [1, 18]: 80 | Plant response rating, Lambsquarters [1, 12]: 85 | Plant response rating, Lambsquarters [1, 13]: 85 | Plant response rating, Lambsquarters [1, 14]: 90 | Plant response rating, Goosegrass [2, 15]: 95 | Plant response rating, Goosegrass [2, 16]: 100 | Plant response rating, Goosegrass [2, 17]: 100 | Plant response rating, Goosegrass [2, 18]: 100 | Plant response rating, Goosegrass [2, 11]: 85 | Plant response rating, Goosegrass [2, 12]: 100 | Plant response rating, Goosegrass [2, 13]: 100 | Plant response rating, Goosegrass [2, 14]: 100 | Plant response rating, Cupgrass, Woolly [3, 15]: 100 | Plant response rating, Cupgrass, Woolly [3, 16]: 100 | Plant response rating, Cupgrass, Woolly [3, 17]: 100 | Plant response rating, Cupgrass, Woolly [3, 18]: 100 | Plant response rating, Cupgrass, Woolly [3, 11]: 85 | Plant response rating, Cupgrass, Woolly [3, 12]: 85 | Plant response rating, Cupgrass, Woolly [3, 13]: 100 | Plant response rating, Cupgrass, Woolly [3, 14]: 100 | Plant response rating, Velvetleaf [4, 15]: 5 | Plant response rating, Velvetleaf [4, 16]: 5 | Plant response rating, Velvetleaf [4, 17]: 20 | Plant response rating, Velvetleaf [4, 18]: 45 | Plant response rating, Velvetleaf [4, 11]: 0 | Plant response rating, Velvetleaf [4, 12]: 0 | Plant response rating, Velvetleaf [4, 13]: 40 | Plant response rating, Velvetleaf [4, 14]: 50 | Plant response rating, Foxtail, Green [5, 15]: 95 | Plant response rating, Foxtail, Green [5, 16]: 100 | Plant response rating, Foxtail, Green [5, 17]: 100 | Plant response rating, Foxtail, Green [5, 18]: 100 | Plant response rating, Foxtail, Green [5, 11]: 100 | Plant response rating, Foxtail, Green [5, 12]: 100 | Plant response rating, Foxtail, Green [5, 13]: 100 | Plant response rating, Foxtail, Green [5, 14]: 100 | Plant response rating, Kochia (kochia (Kochia scoparia); [15]): 0 | Plant response rating, Kochia (kochia (Kochia scoparia); [16]): 0 | Plant response rating, Kochia (kochia (Kochia scoparia); [17]): 60 | Plant response rating, Kochia (kochia (Kochia scoparia); [18]): 70 | Plant response rating, Kochia (kochia (Kochia scoparia); [11]): 0 | Plant response rating, Kochia (kochia (Kochia scoparia); [13]): 0 | Plant response rating, Kochia (kochia (Kochia scoparia); [14]): 0 | Plant response rating, Corn (corn (Zea mays); [15]): 90 | Plant response rating, Corn (corn (Zea mays); [16]): 95 | Plant response rating, Corn (corn (Zea mays); [17]): 100 | Plant response rating, Corn (corn (Zea mays); [18]): 100 | Plant response rating, Corn (corn (Zea mays); [11]): 85 | Plant response rating, Corn (corn (Zea mays); [12]): 95 | Plant response rating, Corn (corn (Zea mays); [13]): 98 | Plant response rating, Corn (corn (Zea mays); [14]): 100 | Plant response rating, Wheat [6, 15]: 90 | Plant response rating, Wheat [6, 16]: 100 | Plant response rating, Wheat [6, 17]: 100 | Plant response rating, Wheat [6, 18]: 100 | Plant response rating, Wheat [6, 11]: 60 | Plant response rating, Wheat [6, 12]: 95 | Plant response rating, Wheat [6, 13]: 100 | Plant response rating, Wheat [6, 14]: 100 | Plant response rating, Nutsedge, Yellow [7, 15]: 0 | Plant response rating, Nutsedge, Yellow [7, 16]: 0 | Plant response rating, Nutsedge, Yellow [7, 17]: 0 | Plant response rating, Nutsedge, Yellow [7, 18]: 0 | Plant response rating, Nutsedge, Yellow [7, 11]: 0 | Plant response rating, Nutsedge, Yellow [7, 12]: 0 | Plant response rating, Nutsedge, Yellow [7, 13]: 0 | Bermudagrass plant response rating ([8]; 250 g ai/ha): 100 | Plant response rating, Bermudagrass [8, 15]: 100 | Plant response rating, Bermudagrass [8, 16]: 100 | Plant response rating, Bermudagrass [8, 17]: 100 | Plant response rating, Bermudagrass [8, 18]: 100 | Plant response rating, Bermudagrass [8, 11]: 100 | Plant response rating, Bermudagrass [8, 12]: 100 | Plant response rating, Bermudagrass [8, 13]: 100 | Plant response rating, Cocklebur [9, 15]: 0 | Plant response rating, Cocklebur [9, 16]: 0 | Plant response rating, Cocklebur [9, 17]: 0 | Plant response rating, Cocklebur [9, 18]: 0 | Plant response rating, Cocklebur [9, 11]: 0 | Plant response rating, Cocklebur [9, 12]: 0 | Plant response rating, Cocklebur [9, 13]: 0 | Plant response rating, Cocklebur [9, 14]: 30 | Plant response rating, Foxtail, Giant [10, 15]: 100 | Plant response rating, Foxtail, Giant [10, 16]: 100 | Plant response rating, Foxtail, Giant [10, 17]: 100 | Plant response rating, Foxtail, Giant [10, 18]: 100 | Plant response rating, Foxtail, Giant [10, 11]: 100 | Plant response rating, Foxtail, Giant [10, 12]: 100 | Plant response rating, Foxtail, Giant [10, 13]: 100 | Plant response rating, Foxtail, Giant [10, 14]: 100
